Our source for the survival vs thapsigargin 6.25 uM and survival values is PubChem BioAssay AID1352 (Sanford-Burnham Center for Chemical Genomics, 2008).

Active and inactive are the calls of the source.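 Rule for the calls: active = compound at 25 µM lifting cell survival 30% over the thapsigargin-only control at any thapsigargin dose; inactive = the rest.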

The assay relates to differentiated PC12, thapsigargin-induced death, ATPlite luminescence, 24 h. Nature of the assay: ER stress death protection in PC12 neurons – cell-based, differentiated PC12, rat pheochromocytoma, ATP luminescence, SAR follow-up (AID 1352). The note with it: at 25 µM, stronger effect = higher value; for survival: measured here: survival.

With `COc1ccc(C2CC(=O)C3=C(C2)Nc2ccccc2NC3c2cccc(C(F)(F)F)c2)cc1OC` (stereo not drawn), the survival vs thapsigargin 6.25 uM is 78%. For the same compound, the survival (thapsigargin 0.25 uM) amounted to 44%. Moreover, the survival (thapsigargin 1.25 uM) turned out to be 48%.
In the same order, the values of `CC1(C)CC(=O)C2=C(C1)Nc1ccccc1NC2c1ccc(-c2ccccc2)cc1` (stereo not drawn) are 81%, 76% and 41%.
In the case of `COc1ccc(C2CC(=O)C3=C(C2)Nc2ccccc2NC3c2cc(C)ccc2C)cc1` (stereo not drawn), the survival vs thapsigargin 6.25 uM was 38%. Besides, the survival (thapsigargin 0.25 uM) amounted to 51%. Further, the survival (thapsigargin 1.25 uM) worked out at 29%.
Turning to `CSc1ccc(C2Nc3ccccc3NC3=C2C(=O)CC(c2ccccc2)C3)cc1` (stereo not drawn), the survival vs thapsigargin 6.25 uM was 30% (inactive). This compound also gave a survival (thapsigargin 0.25 uM) of 22%. In addition, the survival (thapsigargin 1.25 uM) turned out to be 17%.
The matching figures for `COc1ccc(C2CC(=O)C3=C(C2)Nc2ccccc2NC3c2cccc(Br)c2)cc1OC` (stereo not drawn): 54%, 54% and 37%.
The matching figures for `CCCOc1ccc(C2Nc3ccccc3NC3=C2C(=O)CC(c2ccc(OC)c(OC)c2)C3)cc1` (stereo not drawn): 33% (inactive), 32% and 22%.
For the compound `COc1ccc(C2CC(=O)C3=C(C2)Nc2ccccc2NC3c2ccccc2C(F)(F)F)cc1OC` (stereo not drawn), the survival vs thapsigargin 6.25 uM was 34% (inactive). Where the note is “thapsigargin 0.25 uM”, this compound returned a survival of 30%. Moreover, the survival (thapsigargin 1.25 uM) stood at 25%.
The matching figures for `COc1ccc(C2CC(=O)C3=C(C2)Nc2ccccc2NC3c2cccc(Oc3ccccc3)c2)cc1OC` (stereo not drawn): 25% (inactive), 21% and 16%.
In the same order, the values of `CCOc1cccc(C2Nc3ccccc3NC3=C2C(=O)CC(c2ccc(OC)cc2)C3)c1` (stereo not drawn) are 32% (inactive), 26% and 19%.
As for `O=C1CC(c2ccccc2)CC2=C1C(c1c(F)cccc1Cl)Nc1ccccc1N2` (stereo not drawn), the survival vs thapsigargin 6.25 uM was 39% (inactive). For the setting “thapsigargin 0.25 uM”, this compound showed a survival of 38%. Besides, where the note is “thapsigargin 1.25 uM”, the survival came to 19%.
Take `CCOc1cc(C2Nc3ccccc3NC3=C2C(=O)CC(c2ccc(OC)cc2)C3)cc(Cl)c1O` (stereo not drawn): the survival vs thapsigargin 6.25 uM was 44%. The survival (thapsigargin 0.25 uM) was found to be 59%. For the setting “thapsigargin 1.25 uM”, this compound yielded a survival of 38%.
